Results reported in PubChem BioAssay AID248 (DTP/NCI, 2004).
Several values for one entry are separate records, joined by “and”; a condition that tells them apart may be missing. Identical values can stand only once. Toxic doses and inconclusive results are not listed. Cut-off read from the data, not from the text of the source: active = T/C of 150% or more; inactive = T/C below 125%.

Tested on: L1210 leukemia ip in BDF1 mice, survival T/C
Assay: NCI In Vivo Anticancer Drug Screen. Data for tumor model L1210 Leukemia (intraperitoneal) in B6D2F1 (BDF1) mice
Conditions: endpoint: mean survival time, higher = longer survival
Method in brief: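 Mice bearing the transplanted tumor received compound or vehicle. Survival of the treated group was divided by that of the vehicle-treated control group to give the ratio.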

[1] = dose: 100.0 mg/kg/injection, schedule: Q01DX009 (ip), vehicle: Klucel (hydroxypropylcellulose) (HPC)
[2] = dose: 100.0 mg/kg/injection, schedule: Q04DX003 (ip), vehicle: Klucel (hydroxypropylcellulose) (HPC)
[3] = dose: 200.0 mg/kg/injection, schedule: Q01DX009 (ip), vehicle: Klucel (hydroxypropylcellulose) (HPC)
[4] = dose: 200.0 mg/kg/injection, schedule: Q04DX003 (ip), vehicle: Klucel (hydroxypropylcellulose) (HPC)
[5] = dose: 400.0 mg/kg/injection, schedule: Q01DX009 (ip), vehicle: Klucel (hydroxypropylcellulose) (HPC)
[6] = dose: 400.0 mg/kg/injection, schedule: Q04DX003 (ip), vehicle: Klucel (hydroxypropylcellulose) (HPC)
[7] = dose: 100.0 mg/kg/injection, schedule: Q01DX001 (ip), vehicle: carboxymethylcellulose (CMC)
[8] = dose: 200.0 mg/kg/injection, schedule: Q01DX001 (ip), vehicle: carboxymethylcellulose (CMC)
[9] = dose: 100.0 mg/kg/injection, schedule: Q01DX001 (ip), vehicle: saline with Tween-80
[10] = dose: 100.0 mg/kg/injection, schedule: Q04DX003 (ip), vehicle: saline with Tween-80
[11] = dose: 200.0 mg/kg/injection, schedule: Q04DX003 (ip), vehicle: saline with Tween-80
[12] = dose: 100.0 mg/kg/injection, schedule: Q01DX001 (ip), vehicle: saline
[13] = dose: 200.0 mg/kg/injection, schedule: Q01DX001 (ip), vehicle: saline
[14] = dose: 400.0 mg/kg/injection, schedule: Q01DX001 (ip), vehicle: saline

Measured: T/C

CC(=O)O[C@H]1[C@H]2O[C@]23[C@@H]2CC[C@]4(O)C[C@@H](O)CC[C@]4(C)[C@H]2CC[C@]3(C)[C@H]1c1ccc(=O)oc1
inactive: dose: 10.0 mg/kg/injection, schedule: Q01DX001 (ip), vehicle: other 90 % of control | dose: 20.0 mg/kg/injection, schedule: Q01DX001 (ip), vehicle: other 100 % of control | dose: 40.0 mg/kg/injection, schedule: Q01DX001 (ip), vehicle: other 107 % of control | dose: 100.0 mg/kg/injection, schedule: Q01DX001 (ip), vehicle: other 94 % of control | dose: 200.0 mg/kg/injection, schedule: Q01DX001 (ip), vehicle: other 92 % of control

COC(=O)C(Br)C(Br)N1C(=O)c2ccccc2C1=O (stereo not given)
inactive: [1] 98 % of control | [2] 102 % of control | [3] 96 % of control | [4] 105 % of control | [5] 102 % of control | [6] 97 % of control

CNC(=O)c1cc(NC(=O)c2ccc(C(=O)Nc3cc(C(=O)NC)cc(C4=NCCN4)c3)cc2)cc(C2=NCCN2)c1
inactive: dose: 16.0 mg/kg/injection, schedule: Q01DX015 (ip), vehicle: methylcellulose (MC) 90 % of control | dose: 25.0 mg/kg/injection, schedule: Q01DX009 (ip), vehicle: carboxymethylcellulose (CMC) 96 % of control | dose: 31.0 mg/kg/injection, schedule: Q01DX015 (ip), vehicle: methylcellulose (MC) 94 % of control | dose: 50.0 mg/kg/injection, schedule: Q01DX009 (ip), vehicle: carboxymethylcellulose (CMC) 96 % of control | dose: 62.0 mg/kg/injection, schedule: Q01DX015 (ip), vehicle: methylcellulose (MC) 94 % of control and 120 % of control | [7] 96 % of control | dose: 100.0 mg/kg/injection, schedule: Q01DX009 (ip), vehicle: carboxymethylcellulose (CMC) 113 % of control | dose: 125.0 mg/kg/injection, schedule: Q01DX015 (ip), vehicle: methylcellulose (MC) 94 % of control and 102 % of control | [8] 91 % of control | dose: 200.0 mg/kg/injection, schedule: Q01DX009 (ip), vehicle: carboxymethylcellulose (CMC) 98 % of control | dose: 500.0 mg/kg/injection, schedule: Q01DX015 (ip), vehicle: methylcellulose (MC) 106 % of control

COc1ccc(OC)c(NC(=O)Nc2ccc(N(C)C(C)=O)cc2)c1
inactive: [2] 90 % of control | [4] 87 % of control | [6] 88 % of control

O=C(/C=N/O)/C=N/O (tested in a mixture with another compound)
inactive: dose: 6.25 mg/kg/injection, schedule: Q01DX009 (ip), vehicle: saline 97 % of control | dose: 12.5 mg/kg/injection, schedule: Q01DX009 (ip), vehicle: saline 96 % of control | dose: 12.5 mg/kg/injection, schedule: Q04DX003 (ip), vehicle: saline 96 % of control | dose: 25.0 mg/kg/injection, schedule: Q01DX009 (ip), vehicle: saline 96 % of control | dose: 25.0 mg/kg/injection, schedule: Q04DX003 (ip), vehicle: saline 104 % of control

O=c1[nH]c(NCCCCc2ccccc2)c(Br)c(=O)[nH]1
inactive: dose: 25.0 mg/kg/injection, schedule: Q01DX001 (ip), vehicle: saline with Tween-80 98 % of control | dose: 50.0 mg/kg/injection, schedule: Q01DX001 (ip), vehicle: saline with Tween-80 97 % of control | [9] 98 % of control

COC(=O)C1OC1c1cc(OC)ccc1OC (stereo not given)
inactive: [9] 102 % of control | dose: 100.0 mg/kg/injection, schedule: Q04DX003 (ip), vehicle: saline 102 % of control | dose: 200.0 mg/kg/injection, schedule: Q01DX001 (ip), vehicle: saline with Tween-80 103 % of control | dose: 200.0 mg/kg/injection, schedule: Q04DX003 (ip), vehicle: saline 100 % of control | dose: 400.0 mg/kg/injection, schedule: Q01DX001 (ip), vehicle: saline with Tween-80 89 % of control | dose: 400.0 mg/kg/injection, schedule: Q04DX003 (ip), vehicle: saline 97 % of control

CCCCOCN1COCC1(C)C
inactive: [10] 108 % of control | [11] 106 % of control

NC(N)=NN=C(C1CC1)C1CC1
inactive: dose: 15.0 mg/kg/injection, schedule: Q01DX Z (ip), vehicle: carboxymethylcellulose (CMC) 103 % of control | dose: 30.0 mg/kg/injection, schedule: Q01DX Z (ip), vehicle: carboxymethylcellulose (CMC) 89 % of control | dose: 60.0 mg/kg/injection, schedule: Q01DX Z (ip), vehicle: carboxymethylcellulose (CMC) 95 % of control | dose: 120.0 mg/kg/injection, schedule: Q01DX Z (ip), vehicle: carboxymethylcellulose (CMC) 92 % of control and 96 % of control | dose: 120.0 mg/kg/injection, schedule: Q01DX Z (oral), vehicle: carboxymethylcellulose (CMC) 105 % of control | dose: 240.0 mg/kg/injection, schedule: Q01DX Z (ip), vehicle: carboxymethylcellulose (CMC) 92 % of control and 104 % of control | dose: 240.0 mg/kg/injection, schedule: Q01DX Z (oral), vehicle: carboxymethylcellulose (CMC) 105 % of control | dose: 480.0 mg/kg/injection, schedule: Q01DX Z (ip), vehicle: carboxymethylcellulose (CMC) 104 % of control | dose: 480.0 mg/kg/injection, schedule: Q01DX Z (oral), vehicle: carboxymethylcellulose (CMC) 103 % of control | dose: 960.0 mg/kg/injection, schedule: Q01DX Z (oral), vehicle: carboxymethylcellulose (CMC) 100 % of control

COCc1ccc([N+](=O)[O-])o1
inactive: [12] 101 % of control | [13] 103 % of control | [14] 101 % of control

O=C(O)CCCCCCC(=O)OCC(=O)c1ccc(-c2ccccc2)cc1
inactive: [12] 94 % of control | [13] 91 % of control | [14] 91 % of control

CC12CCC3C4CCC(O)CC4=CCC3C1CCC2=O (stereo not given)
inactive: dose: 50.0 mg/kg/injection, schedule: Q01DX001 (ip), vehicle: Klucel (hydroxypropylcellulose) (HPC) 107 % of control | dose: 100.0 mg/kg/injection, schedule: Q01DX001 (ip), vehicle: Klucel (hydroxypropylcellulose) (HPC) 104 % of control and 107 % of control | dose: 200.0 mg/kg/injection, schedule: Q01DX001 (ip), vehicle: Klucel (hydroxypropylcellulose) (HPC) 92 % of control | dose: 400.0 mg/kg/injection, schedule: Q01DX001 (ip), vehicle: Klucel (hydroxypropylcellulose) (HPC) 104 % of control

CSc1nc(C)c(C=O)s1
inactive: [7] 100 % of control | [8] 96 % of control | dose: 400.0 mg/kg/injection, schedule: Q01DX001 (ip), vehicle: carboxymethylcellulose (CMC) 94 % of control

CC1(C)C2CCC1(C)C(N1C(c3ccccc3)C1c1ccccc1)C2 (stereo not given)
inactive: [1] 90 % of control | [3] 88 % of control | [5] 90 % of control

CCCCn1cccc1
inactive: [10] 106 % of control | [11] 95 % of control

NC(=O)OCC1OC(n2ccc(=O)[nH]c2=O)C(O)C1O (stereo not given)
inactive: dose: 100.0 mg/kg/injection, schedule: Q01DX005 (ip), vehicle: saline 105 % of control

c1ccc(-c2c[nH]c(-c3ccccc3)c2-c2ccccc2)cc1
inactive: dose: 75.0 mg/kg/injection, schedule: Q01DX001 (ip), vehicle: carboxymethylcellulose (CMC) 93 % of control | dose: 150.0 mg/kg/injection, schedule: Q01DX001 (ip), vehicle: carboxymethylcellulose (CMC) 93 % of control | dose: 300.0 mg/kg/injection, schedule: Q01DX001 (ip), vehicle: carboxymethylcellulose (CMC) 93 % of control

CCC(SC#N)C(CC)SC#N (stereo not given)
inactive: dose: 12.5 mg/kg/injection, schedule: Q04DX002 (ip), vehicle: Klucel (hydroxypropylcellulose) (HPC) 103 % of control | dose: 25.0 mg/kg/injection, schedule: Q04DX002 (ip), vehicle: Klucel (hydroxypropylcellulose) (HPC) 93 % of control | dose: 50.0 mg/kg/injection, schedule: Q04DX002 (ip), vehicle: Klucel (hydroxypropylcellulose) (HPC) 90 % of control

Nc1cc(N)c(O)c(N)c1
inactive: dose: 0.5 mg/kg/injection, schedule: Q04DX003 (ip), vehicle: saline 103 % of control | dose: 1.0 mg/kg/injection, schedule: Q04DX003 (ip), vehicle: saline 105 % of control | dose: 1.25 mg/kg/injection, schedule: Q01DX009 (ip), vehicle: saline 95 % of control | dose: 2.0 mg/kg/injection, schedule: Q04DX003 (ip), vehicle: saline 111 % of control | dose: 2.5 mg/kg/injection, schedule: Q01DX009 (ip), vehicle: saline 90 % of control | dose: 5.0 mg/kg/injection, schedule: Q01DX009 (ip), vehicle: saline 97 % of control

COc1ccc(OC)c(/C=C/C(=O)c2ccc(Cl)cc2)c1
inactive: [2] 94 % of control | [4] 94 % of control | [6] 97 % of control
